Measured values published in US8461085B2, “Bioherbicide from Festuca spp” (Cornell Research Foundation, Inc., priority 2005, dated 2013).
“Also recorded” adds a separate entry of the source.

Tests used:
Wheat = experiment: Weed and crop Petri dish bioassay, radicle length; assay type: in vivo, Triticum aestivum L.
Protocol: (§1) m-Tyrosine activity was bioassayed using selected weed and crop species. Growth inhibition as measured by radicle elongation was evaluated in dandelion (Taraxacum officinale Weber in […].), large crabgrass (Digitaria sanguinalis (L.) Scop.), velvetleaf (Abutilon theophrasti Medicus), black medic (Medicago lupulina L.), curly cress (Lepidium sativum L.), bamyardgrass (Echinochloa crus-galli.(L.) Beauv.), lettuce (Lactuca sativa L.), purslane (Portulaca oleracea L.), annual bluegrass (Poa annua L.), birdsfoot trefoil (Lotus corniculatus L.), broadleaf plantain (Plantago major L.), mouseear chickweed (Cerastium vulgatum L.), common chickweed (Stellaria media (L.) Vill.), white clover (Trifolium repens L.), wheat (Triticum aestivum L.), tomato (Lycopersicon esculentum var. esculentum P. Mill.), tobacco (Nicotiana tobacum L.), and sorghum sudangrass hybrid (Sorghum bicolor x Sudanese). Weeds were purchased from HerbiSeeds, England, tomato seeds were purchased from Agway (Ithaca N.Y.), and wheat, sudex and tobacco where donated by Pioneer Seeds (Johnson, Iowa). Seeds were sterilized by a water: ethanol mixture (1:1) for one minute and rinsed three times thoroughly in distilled water. […] At the end of the incubation period, radicle length was measured. […]

Dandelion = experiment: Weed and crop Petri dish bioassay, radicle length; assay type: in vivo, Taraxacum officinale Weber in Weggers.
Protocol: (§2) m-Tyrosine activity was bioassayed using selected weed and crop species. Growth inhibition as measured by radicle elongation was evaluated in dandelion (Taraxacum officinale Weber in […].), large crabgrass (Digitaria sanguinalis (L.) Scop.), velvetleaf (Abutilon theophrasti Medicus), black medic (Medicago lupulina L.), curly cress (Lepidium sativum L.), bamyardgrass (Echinochloa crus-galli.(L.) Beauv.), lettuce (Lactuca sativa L.), purslane (Portulaca oleracea L.), annual bluegrass (Poa annua L.), birdsfoot trefoil (Lotus corniculatus L.), broadleaf plantain (Plantago major L.), mouseear chickweed (Cerastium vulgatum L.), common chickweed (Stellaria media (L.) Vill.), white clover (Trifolium repens L.), wheat (Triticum aestivum L.), tomato (Lycopersicon esculentum var. esculentum P. Mill.), tobacco (Nicotiana tobacum L.), and sorghum sudangrass hybrid (Sorghum bicolor x Sudanese). Weeds were purchased from HerbiSeeds, England, tomato seeds were purchased from Agway (Ithaca N.Y.), and wheat, sudex and tobacco where donated by Pioneer Seeds (Johnson, Iowa). Seeds were sterilized by a water: ethanol mixture (1:1) for one minute and rinsed three times thoroughly in distilled water. The simple phytotoxicity bioassay utilized consisted of the evaluation of radicle length of ten sterilized seeds of each weed/crop deposited on a filter paper containing the appropriate m-tyrosine test solution in 4.5 cm Petri dishes. […] A 1000 μL aliquot of the appropriate test solution was added to individual Petri dishes lined with Whatman No. 1 filter paper. Control dishes received 1000 μL of water. After seeds were placed on moistened filter paper, Petri dishes were transferred to a controlled environment with a light regime of 45,33 photon m^-2 s^-1 and maintained at an average temperature of 25° C. for 7 days. At the end of the incubation period, radicle length was measured. Treatments were replicated three times, and the experiment for each plant species tested was repeated three times.

Large Crabgrass = experiment: Weed and crop Petri dish bioassay, radicle length; assay type: in vivo, Digitaria sanguinalis (L.) Scop.
Protocol: as §2

[1] = test system: onion (Allium cepa L.) root cells; experiment: Mitotic index of onion root tip cells; assay type: cell-based
Protocol: Root tips were stained for light microscopy examination using the Feulgen reaction. Root tips of three mm length were treated with a mixture of absolute ethanol:glacial acetic acid for two hours. The ethanol-glacial acetic acid mixture was removed and the tips were rinsed with distilled water. […] For each m-tyrosine concentration, five individual root tips were removed and macerated in a drop of 45% acetic acid on a slide, and the mitotic stages of the onion root tip cells were observed under a light microscope. […] One thousand cells were recorded per replication, resulting in observation of a total of 3000 cells per treatment. The experiment was repeated three times.

[2] = test system: lettuce seedlings (Lactuca sativa L.); experiment: Soil bioassay, lettuce root growth; assay type: in vivo; details: for IC50: Lactuca sativa; for Root Length of Lettuce Seedlings: m-tyrosine at 160 μM
Cress = experiment: Weed and crop Petri dish bioassay, radicle length; assay type: in vivo, Lepidium sativum L.
Protocol: as §1

[3] = test system: lettuce seedlings (Lactuca sativa L.); experiment: Petri-dish bioassay, radicle elongation in lettuce seedlings; assay type: in vivo; details: for IC50: Lactuca sativa
[4] = Dissolution in aqueous solution; assay type: physicochemical
crabgrass seedlings = experiment: Soil bioassay, crabgrass root growth; assay type: in vivo, Digitaria sanguinalis L.; details: Digitaria sanguinalis, soil media, read-out: concentration reducing root elongation by 50%
Description: Large crabgrass was also included in the first two experiments because it is a common weed in turf settings. Prior experiments have shown that m-tyrosine is a potent inhibitor of root growth of large crabgrass and lettuce (Bertin et al., “Laboratory Assessment of the Allelopathic Effects of Fine Leaf Fescues,” J. Chem. Ecol. 29:1919-1937 (2003), which is hereby incorporated by reference in its entirety). Soil and MetroMix, as described as previously, were placed in 9-cm petri dishes, and 15 lettuce or crabgrass seeds were sown on the soil surface. Each experiment was replicated three times and was repeated over time.

[5] = test system: fine leaf fescue seedlings cultivar Intrigue; experiment: Autotoxicity Petri dish bioassay with fine leaf fescue seeds; assay type: in vivo, Festuca rubra L. Subsp. Commutata Gaud.; details: 20 μM to 160 μM
Lettuce = experiment: Weed and crop Petri dish bioassay, radicle length; assay type: in vivo, Lactuca sativa L.
Protocol: as §1

Annual bluegrass = experiment: Weed and crop Petri dish bioassay, radicle length; assay type: in vivo, Poa annua L.
Protocol: as §2

Barnyard grass = experiment: Weed and crop Petri dish bioassay, radicle length; assay type: in vivo, Echinochloa crus-galli (L.) Beauv.
Protocol: as §1

N[C@@H](Cc1cccc(O)c1)C(=O)O [m-tyrosine, 3-hydroxyphenylalanine]
I10 (Wheat): 80 µM
IC50 (Wheat; Triticum aestivum, read-out: I50): 157 µM
I10 (Dandelion): 10 µM
I100 (Dandelion): 160 µM
IC50 (Dandelion; Taraxacum officinale, read-out: I50): 39 µM
I10 (Large Crabgrass): 20 µM
I100 (Large Crabgrass): 320 µM
IC50 (Large Crabgrass; Digitaria sanguinalis, read-out: I50): 38 µM
mitotic indices in all phases of mitosis ([1]; 20 μM): significantly reduced
Anaphase, total cells observed ([1]; m-tyrosine 10 (μM)): 1.6%
Metaphase, total cells observed ([1]; m-tyrosine 10 (μM)): 1.4%
Prophase, total cells observed ([1]; m-tyrosine 10 (μM)): 2.2%
Telophase, total cells observed ([1]; m-tyrosine 10 (μM)): 2%
Anaphase, total cells observed ([1]; m-tyrosine 20 (μM)): 1.1%
Metaphase, total cells observed ([1]; m-tyrosine 20 (μM)): 1%
Prophase, total cells observed ([1]; m-tyrosine 20 (μM)): 2%
Telophase, total cells observed ([1]; m-tyrosine 20 (μM)): 1%
Anaphase, total cells observed ([1]; m-tyrosine 40 (μM)): 0.6%
Metaphase, total cells observed ([1]; m-tyrosine 40 (μM)): 0.4%
Prophase, total cells observed ([1]; m-tyrosine 40 (μM)): 1%
Telophase, total cells observed ([1]; m-tyrosine 40 (μM)): 0.2%
Anaphase, total cells observed ([1]; m-tyrosine 80 (μM)): 0.5%
Metaphase, total cells observed ([1]; m-tyrosine 80 (μM)): 0%
Prophase, total cells observed ([1]; m-tyrosine 80 (μM)): 0.5%
Telophase, total cells observed ([1]; m-tyrosine 80 (μM)): 0.2%
Anaphase, total cells observed ([1]; m-tyrosine 160 (μM)): 0%
Metaphase, total cells observed ([1]; m-tyrosine 160 (μM)): 0%
Prophase, total cells observed ([1]; m-tyrosine 160 (μM)): 0.2%
Telophase, total cells observed ([1]; m-tyrosine 160 (μM)): 0.3%
IC50 ([2]; in soil, read-out: I50, 50% inhibition of root growth of lettuce): ~30 µM
IC50 ([2]; soil media, lettuce, read-out: concentration reducing root elongation by 50%): 4000 µM
Root Length of Lettuce Seedlings ([2]; ammonium nitrate 0 mM): 2.07 (0.02) cm
Root Length of Lettuce Seedlings ([2]; ammonium nitrate 0.125 mM): 3.56 (0.07) cm
Root Length of Lettuce Seedlings ([2]; ammonium nitrate 0.25 mM): 4.82 (0.1) cm
Root Length of Lettuce Seedlings ([2]; ammonium nitrate 0.5 mM): 4.8 (0.09) cm
Root Length of Lettuce Seedlings ([2]; ammonium nitrate 1.0 mM): 4.8 (0.12) cm
reduction of the inhibition of radicle elongation ([2]; with 1 mM NH4NO3 in comparison to m-tyrosine without soil NH4NO3): approximately 25%
I10 (Cress): 15 µM
IC50 (Cress; Lepidium sativum, read-out: I50): 23 µM
reduction of root elongation of lettuce seedlings ([3]; 20 μM loaded on filter paper): 64%
IC50 ([3]; lettuce seedlings at 72 h, read-out: concentration for 50% reduction of root growth): 17 µM
IC50 ([3]; soil-less assay, read-out: I50, 50% inhibition of root growth of lettuce): ~8 µM
root elongation of pre-germinated lettuce seeds ([3]; solutions added to pre-germinated seeds): strongly inhibited
dissolution in an aqueous solution [4]: easily dissolved
IC50 (crabgrass seedlings): 4000 µM
root elongation of fescue seedlings [5]: not affected; also recorded: No inhibition
I10 (Lettuce): 6 µM
IC50 (Lettuce; Lactuca sativa, read-out: I50): 20 µM
I10 (Annual bluegrass): 25 µM
I100 (Annual bluegrass): 320 µM
IC50 (Annual bluegrass; Poa annua, read-out: I50): 47 µM
I10 (Barnyard grass): 80 µM
IC50 (Barnyard grass; Echinochloa crus-galli, read-out: I50): 257 µM
